From US10988459B2 (priority 2015, dated 2021)

Molecular target: human RIP1 kinase domain (2-375) (Homo sapiens (Human), UniProt Q13546)
Test: biochemical
Assay type: biochemical
Details: human RIP1 kinase domain (2-375), 50 uM ATP, 2 hours incubation, Transcreener ADP assay; read-out: RIP1 Ki
Summary of the method: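 Ki^app comes from Morrison tight-binding fits of fractional activity versus compound concentration. Activity was read as ADP production, via tracer displacement lowering fluorescence polarization (633 nm laser). Conditions: 2 h, 50 nM insect-cell-expressed enzyme, 50 uM ATP, 30 mM MgCl2, 1 mM DTT, 0.5% DMSO, pH 7.5 Hepes.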

Sequence of human RIP1 kinase domain (2-375) (Q13546 2-375): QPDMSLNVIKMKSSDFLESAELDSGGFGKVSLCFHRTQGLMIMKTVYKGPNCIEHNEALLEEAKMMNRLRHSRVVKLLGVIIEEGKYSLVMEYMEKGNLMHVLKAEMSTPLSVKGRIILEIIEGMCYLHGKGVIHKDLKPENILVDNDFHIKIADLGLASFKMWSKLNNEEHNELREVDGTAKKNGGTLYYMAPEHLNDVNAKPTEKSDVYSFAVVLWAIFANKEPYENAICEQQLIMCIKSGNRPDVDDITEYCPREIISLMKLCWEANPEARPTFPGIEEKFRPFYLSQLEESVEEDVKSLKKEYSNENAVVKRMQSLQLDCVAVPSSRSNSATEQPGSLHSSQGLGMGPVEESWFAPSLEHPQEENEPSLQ

Row | Structure (SMILES) | Ki [nM]
1 | CN1C(=O)[C@@H](NC(=O)c2n[nH]c3ncc(C(F)(F)C(F)(F)F)cc23)COc2ccccc21 [Example 117, (S)—N-(5-methyl-4-oxo-2,3,4,5-tetrahydrobenzo[b][1,4]oxazepin-3-yl)-5-(perfluoroethyl)-1H-pyrazolo[3,4-b]pyridine-3-carboxamide] | 5.6
2 | CN1C(=O)[C@@H](NC(=O)c2ncn(Cc3ccccc3)n2)CC[C@H]2[C@@H]1C2(F)F (single isomer, unassigned) [Example 130] | > 10000

Same assay, conditions: human RIP1 kinase domain (2-375), Transcreener ADP assay, 50 uM ATP, 2 hours incubation; read-out: RIP1 Ki

Row | Structure (SMILES) | Ki [nM]
3 | CN1C(=O)[C@@H](NC(=O)c2ncn3cnc(C(F)(F)F)cc23)COc2ccccc21 [Example 230, (S)—N-(5-methyl-4-oxo-2,3,4,5-tetrahydrobenzo[b][1,4]oxazepin-3-yl)-7-(trifluoromethyl) imidazo[1,5-c]pyrimidine-1-carboxamide] | 21.7

Same assay, conditions: tight-binding apparent inhibition constant; human RIP1 kinase domain (2-375) 50 nM, 50 uM ATP, 2 hours; read-out: Ki

Row | Structure (SMILES) | Ki [nM]
4 | Cc1cc2n(n1)CC[C@H](NC(=O)c1nc3n(n1)CCC31CCOC1)C(=O)N2C (stereo partly drawn) [Example 646, N-[(6S)-2,4-dimethyl-5-oxo-7,8-dihydro-6H-pyrazolo[1,5-a][1,3]diazepin-6-yl]spiro[5,6-dihydropyrrolo[1,2-b][1,2,4]triazole-7,3′-tetrahydrofuran]-2-carboxamide] | 9300
5 | CN1C(=O)[C@H](NC(=O)c2ncn(Cc3ccc(F)cc3)n2)CCn2nc(C3CC3)cc21 (stereo in doubt) [Example 680, 1-[(4-fluorophenyl)methyl]-N-[rac-(6R)-2-cyclopropyl-4-methyl-5-oxo-7,8-dihydro-6H-pyrazolo[1,5-a][1,3]diazepin-6-yl]-1,2,4-triazole-3-carboxamide] | 9200
6 | CCC[C@H]1CCCc2nc(C(=O)N[C@H]3COc4cc(C)cc(F)c4NC3=O)nn21 (single isomer, unassigned) [Example 439] | 6.62
7 | CN1C(=O)[C@@H](NC(=O)c2nc3n(n2)[C@@H](c2cnn(C)c2)CCC3)COc2ccccc21 (racemic) [Example 407, (R)-5-(1-methyl-1H-pyrazol-4-yl)-N—((S)-5-methyl-4-oxo-2,3,4,5-tetrahydrobenzo[b][1,4]oxazepin-3-yl)-5,6,7,8-tetrahydro-[1,2,4]triazolo[1,5-a]pyridine-2-carboxamide] | 54.9
8 | Cc1ncn2c1N(C)C(=O)[C@H](NC(=O)c1ncn(Cc3cc(F)ccc3F)n1)CC2 [Example 504, 1-[(2,5-difluorophenyl)methyl]-N-(3R)-1,9-dimethyl-2-oxo-4,5-dihydro-3H-imidazo[1,5-a][1,3]diazepin-3-yl-1,2,4-triazole-3-carboxamide] | 50
9 | Cc1ncc2n1CC[C@@H](NC(=O)c1ncn(Cc3c(F)cccc3F)n1)C(=O)N2C [Example 578, 1-[(2,6-difluorophenyl)methyl]-N-[(3R)-1,7-dimethyl-2-oxo-4,5-dihydro-3H-imidazo[1,5-a][1,3]diazepin-3-yl]-1,2,4-triazole-3-carboxamide] | 40
10 | CC[C@]1(C)OCc2cnc(C(=O)N[C@H]3COc4ccccc4N(C)C3=O)nc21 (racemic) [Example 685, rac-(7S)-7-ethyl-7-methyl-N-[rac-(3S)-5-methyl-4-oxo-2,3-dihydro-1,5-benzoxazepin-3-yl]-5H-furo[3,4-d] pyrimidine-2-carboxamide] | 21.4
11 | CC(C)[C@@H]1CCCc2nc(C(=O)N[C@H]3CCc4cc(F)cc(F)c4NC3=O)nn21 (single isomer, unassigned) [Example 436] | 20.3
12 | Cc1cc2n(n1)CC[C@H](NC(=O)c1ncn(Cc3cccnc3C)n1)C(=O)N2C [Example 664, 1-[(2-methyl-3-pyridyl)methyl]-N-(6S)-2,4-dimethyl-5-oxo-7,8-dihydro-6H-pyrazolo[1,5-a][1,3]diazepin-6-yl-1,2,4-triazole-3-carboxamide] | 730
13 | CN1C(=O)[C@@H](NC(=O)c2nc3n(n2)[C@H](c2ccccc2)CC3)CCn2nccc21 (single isomer, unassigned) [Example 614] | 790
